# Reference: patent US20150342195A1, “ANTI-MICROBIAL COMPOSITIONS, PREPARATIONS, METHODS, AND USES” (MYCO SCIENCES LIMITED, priority 2014, published 2015)
# Columns and labels:
# Type in all cases: cell-based
# Botrytis cinerea = assay: Fungal growth inhibition assay (hyphal growth diameter on PDA); conditions: for IC50: % of composition stock solution / IC50: concentration of copper or zinc in the composition, or phosphorous acid: PDA, 2 days; for IC50: concentration of copper or zinc in the composition, or phosphorous acid: Cu—Zn#12: 50% each of elemental copper and zinc; for Potassium sorbate synergy with composition/compound: potassium sorbate and composition/compound both at their IC50 concentrations
# Alternaria alternata = assay: as above; conditions: PDA, 2 days; for IC50: concentration of copper or zinc in the composition, or phosphorous acid: Cu—Zn#12: 50% each of elemental copper and zinc
# Aspergillus niger = assay: as above; conditions: for IC50: % of composition stock solution / IC50: concentration of copper or zinc in the composition, or phosphorous acid: PDA, 6 days; for IC50: concentration of copper or zinc in the composition, or phosphorous acid: Cu—Zn#12: 50% each of elemental copper and zinc; for Potassium sorbate synergy with composition/compound: potassium sorbate and composition/compound both at their IC50 concentrations
# Trichophyton rubrum = assay: Fungal growth inhibition assay with Trichophyton rubrum; conditions: PDA, 33° C., 7 days; for T. rubrum IC50 values: Concentration: Cu—Zn#12: 50% each of elemental copper and zinc
# Method: To assess the effects of compositions on fungal growth, 10 microliters of the test compositions diluted in sterile distilled water were placed in the wells of a 12-well tissue culture plate and 1 milliliter of liquid PDA was added by pipette to each well. Where multiple samples were added to each well, the 10 microliter drops were kept separate until they were mixed by the addition of hot liquid PDA and the plate was then agitated to evenly distribute the test composition(s) evenly through the agar (distilled water was used as vehicle control) and then the agar was allowed to set. For most strains (see TABLE 2), plugs of agar containing fungal hyphae (2 to 3 millimeters in diameter) from the edge of an established fungal culture were carefully cut out using a scalpel and inserted into holes cut in the centre of the agar in each well of the 12-well plate. With B. cinerea and U. maydis, mature cultures were washed with 3 ml of sterile distilled water and the spore suspensions obtained were adjusted to O.D. (at 600 nanometers) of 1.0 and 1.5, respectively. A small hole (˜1 millimeter) was made in the center of the PDA in each well with a yellow pipette tip and 1.5 microliters of spore suspension was carefully pipetted into the hole. […] To assess the effects of compositions on fungal growth in all experiments, the diameter of the hyphal growth was measured twice at a 90° angle using a ruler and the average diameter in millimeters was calculated. If no fungal growth could be detected by eye, the cultures were observed by phase microscopy (40×) to confirm that there was no growth (NG).
# A clinical isolate of T. rubrum (strain 7107996; Phylum: Acomycota) was kindly provided by Dr. Richard Barton, Leeds University, UK. The growth assays with T. rubrum were as described in EXAMPLE 1, except this strain was cultured at 33° C. on PDA for 6 or 7 days when growth was assessed. T. rubrum cultures were maintained on Sabouraud dextrose agar at 33° C.
# FIG. 8 is a graph depicting the effects of selected compositions and compounds on the growth of Trichophyton rubrum. The culture period was 7 days. Growth in the control cultures was 20±0 millimeters (mean±SD for 2 experiments).
# Rhizoctonia solani = assay: Fungal growth inhibition assay (hyphal growth diameter on PDA); conditions: for IC50: % of composition stock solution / IC50: concentration of copper or zinc in the composition, or phosphorous acid: PDA, 1 day; for IC50: concentration of copper or zinc in the composition, or phosphorous acid: Cu—Zn# compositions: copper plus zinc; for Potassium sorbate synergy with composition/compound: potassium sorbate and composition/compound both at their IC50 concentrations
# Magnaporthe oryzae = assay: microbe, parasite or virus in culture; conditions: PDA; for IC50: % of composition stock solution / IC50: concentration of copper or zinc in the composition, or phosphorous acid: 4 days; for IC50: concentration of copper or zinc in the composition, or phosphorous acid: Cu—Zn#12: 50% each of elemental copper and zinc
# [1] = system: Xanthomonas campestris (strain Race 5 from brassica); assay: Bacterial microplate culture (resazurin MIC); conditions: 24 hours at 28° C.; highest concentration 400 mg/L (1% of stock solutions)
# [2] = system: Xanthomonas oryzae (strain Gx0372); assay: microbe, parasite or virus in culture; conditions: 24 hours at 28° C.; highest concentration 400 mg/L (1% of stock solutions)
# [3] = system: Pseudomonas syringae (pv. tomato DC3000); assay: Bacterial microplate culture (resazurin MIC); conditions: 24 hours at 28° C.; highest concentration 400 mg/L (1% of stock solutions)
# plant pathogenic fungi = assay: organism not typed; conditions: summary of TABLE 8
# Fusarium graminearum = assay: microbe, parasite or virus in culture; conditions: for IC50: % of composition stock solution / IC50: concentration of copper or zinc in the composition, or phosphorous acid: PDA, 3 days; for IC50: concentration of copper or zinc in the composition, or phosphorous acid: Cu—Zn#12: 50% each of elemental copper and zinc; for Potassium sorbate synergy with composition/compound: potassium sorbate and composition/compound both at their IC50 concentrations
# Ustilago maydis = assay: Fungal growth inhibition assay (hyphal growth diameter on PDA); set-up: Potassium sorbate synergy with composition/compound: key to the marks not given beside the values; conditions: for IC50: % of composition stock solution / IC50: concentration of copper or zinc in the composition, or phosphorous acid: PDA, 5 days; for IC50: concentration of copper or zinc in the composition, or phosphorous acid: Cu—Zn#12: 50% each of elemental copper and zinc; for Potassium sorbate synergy with composition/compound: potassium sorbate and composition/compound both at their IC50 concentrations
# [4] = system: Ralstonia solanacearum (strain PSS4 from tomato); assay: microbe, parasite or virus in culture; conditions: 24 hours at 28° C.; highest concentration 400 mg/L (1% of stock solutions)
Compound,IC50: % of composition stock solution (Botrytis cinerea),"IC50: concentration of copper or zinc in the composition, or phosphorous acid (Botrytis cinerea) [µg/mL]",Potassium sorbate synergy with composition/compound (Botrytis cinerea),IC50: % of composition stock solution (Alternaria alternata),"IC50: concentration of copper or zinc in the composition, or phosphorous acid (Alternaria alternata) [µg/mL]",IC50: % of composition stock solution (Aspergillus niger),"IC50: concentration of copper or zinc in the composition, or phosphorous acid (Aspergillus niger) [µg/mL]",T. rubrum IC50 values: % of stock solution (Trichophyton rubrum),T. rubrum IC50 values: Concentration (Trichophyton rubrum) [µg/mL],IC50: % of composition stock solution (Rhizoctonia solani),"IC50: concentration of copper or zinc in the composition, or phosphorous acid (Rhizoctonia solani) [µg/mL]",IC50: % of composition stock solution (Magnaporthe oryzae),"IC50: concentration of copper or zinc in the composition, or phosphorous acid (Magnaporthe oryzae) [µg/mL]",MIC [1] [µg/mL],MIC [2] [µg/mL],MIC [3] [µg/mL],fungal strains (of those tested) showing strong synergy with KS (plant pathogenic fungi),IC50: % of composition stock solution (Fusarium graminearum),"IC50: concentration of copper or zinc in the composition, or phosphorous acid (Fusarium graminearum) [µg/mL]",IC50: % of composition stock solution (Ustilago maydis),also measured
"O=S(=O)([O-])[O-].[Cu+2] [Copper sulfate, copper sulfate]",0.46 % of composition stock solution,184,++,0.44 % of composition stock solution,176,0.19 % of composition stock solution,76,0.20 % of stock solution,80,0.39 % of composition stock solution,156,0.51 % of composition stock solution,204,50,50,100,6/7,0.22 % of composition stock solution,88,0.43 % of composition stock solution,"IC50: % of composition stock solution (Magnaporthe oryzae; listed as copper sulfate): 0.51 % of composition stock solutio; IC50: % of composition stock solution (Fusarium graminearum; listed as copper sulfate): 0.22 % of composition stock solutio; IC50: concentration of copper or zinc in the composition, or phosphorous acid (Ustilago maydis): 172 µg/mL; MIC [4]: 50 µg/mL"
"OP(O)O [Phosphorous acid, phosphorous acid]",0.63 % of composition stock solution,252,+,0.51 % of composition stock solution,204,0.19 % of composition stock solution,76,0.05 % of stock solution,20,0.64 % of composition stock solution,256,0.57 % of composition stock solution,228,>400,400,200,4/7,0.39 % of composition stock solution,156,0.75 % of composition stock solution,"Potassium sorbate synergy with composition/compound (Aspergillus niger): +; IC50: % of composition stock solution (Magnaporthe oryzae; listed as phosphorous acid): 0.57 % of composition stock solutio; IC50: % of composition stock solution (Fusarium graminearum; listed as phosphorous acid): 0.78 % of composition stock solutio; IC50: concentration of copper or zinc in the composition, or phosphorous acid (Ustilago maydis): 300 µg/mL; Potassium sorbate synergy with composition/compound (Ustilago maydis): ++; MIC [4]: 100 µg/mL"
"O=S(=O)([O-])[O-].[Zn+2] [Zinc sulfate, zinc sulfate]",0.52 % of composition stock solution,208,+,0.62 % of composition stock solution,248,0.25 % of composition stock solution,100,0.25 % of stock solution,100,0.33 % of composition stock solution,132,0.48 % of composition stock solution,192,>400,400,400,2 strains,0.66 % of composition stock solution,264,0.56 % of composition stock solution,"Potassium sorbate synergy with composition/compound (Aspergillus niger): +; Potassium sorbate synergy with composition/compound (Rhizoctonia solani): +; IC50: % of composition stock solution (Magnaporthe oryzae; listed as zinc sulfate): 0.48 % of composition stock solutio; IC50: % of composition stock solution (Fusarium graminearum; listed as zinc sulfate): 0.66 % of composition stock solutio; Potassium sorbate synergy with composition/compound (Fusarium graminearum): +; IC50: concentration of copper or zinc in the composition, or phosphorous acid (Ustilago maydis): 224 µg/mL; Potassium sorbate synergy with composition/compound (Ustilago maydis): ++; MIC [4]: >400 µg/mL"
Potassium phosphite,0.67 % of composition stock solution,–,+,1.1 % of composition stock solution,–,0.19 % of composition stock solution,–,–,–,0.93 % of composition stock solution,–,3.7 % of composition stock solution,–,–,–,–,2 strains,0.78 % of composition stock solution,–,1.3 % of composition stock solution,"Potassium sorbate synergy with composition/compound (Aspergillus niger): +; Potassium sorbate synergy with composition/compound (Rhizoctonia solani): ++; IC50 fold higher than the Cu#, Cu—Zn# or Zn# compositions (Magnaporthe oryzae): 13.7 fold; Potassium sorbate synergy with composition/compound (Fusarium graminearum): ++; Potassium sorbate synergy with composition/compound (Ustilago maydis): ++"
